Test results published in patent US20240398784A1, “C-LINKED ISOQUINOLINE AMIDES AS LRRK2 INHIBITORS, PHARMACEUTICAL COMPOSITIONS, AND USES THEREOF” (Merck Sharp & Dohme LLC, priority 2021, published 2024).

Molecular target: LRRK2 G2019S (Homo sapiens, UniProt Q5S007, G2019S)
Experiment: LRRK2 G2019S Km ATP LanthaScreen assay
Assay type: biochemical
Conditions: read-out: LRRK2 pIC50 (converted)

Chain of LRRK2 G2019S (Q5S007 whole entry G2019S): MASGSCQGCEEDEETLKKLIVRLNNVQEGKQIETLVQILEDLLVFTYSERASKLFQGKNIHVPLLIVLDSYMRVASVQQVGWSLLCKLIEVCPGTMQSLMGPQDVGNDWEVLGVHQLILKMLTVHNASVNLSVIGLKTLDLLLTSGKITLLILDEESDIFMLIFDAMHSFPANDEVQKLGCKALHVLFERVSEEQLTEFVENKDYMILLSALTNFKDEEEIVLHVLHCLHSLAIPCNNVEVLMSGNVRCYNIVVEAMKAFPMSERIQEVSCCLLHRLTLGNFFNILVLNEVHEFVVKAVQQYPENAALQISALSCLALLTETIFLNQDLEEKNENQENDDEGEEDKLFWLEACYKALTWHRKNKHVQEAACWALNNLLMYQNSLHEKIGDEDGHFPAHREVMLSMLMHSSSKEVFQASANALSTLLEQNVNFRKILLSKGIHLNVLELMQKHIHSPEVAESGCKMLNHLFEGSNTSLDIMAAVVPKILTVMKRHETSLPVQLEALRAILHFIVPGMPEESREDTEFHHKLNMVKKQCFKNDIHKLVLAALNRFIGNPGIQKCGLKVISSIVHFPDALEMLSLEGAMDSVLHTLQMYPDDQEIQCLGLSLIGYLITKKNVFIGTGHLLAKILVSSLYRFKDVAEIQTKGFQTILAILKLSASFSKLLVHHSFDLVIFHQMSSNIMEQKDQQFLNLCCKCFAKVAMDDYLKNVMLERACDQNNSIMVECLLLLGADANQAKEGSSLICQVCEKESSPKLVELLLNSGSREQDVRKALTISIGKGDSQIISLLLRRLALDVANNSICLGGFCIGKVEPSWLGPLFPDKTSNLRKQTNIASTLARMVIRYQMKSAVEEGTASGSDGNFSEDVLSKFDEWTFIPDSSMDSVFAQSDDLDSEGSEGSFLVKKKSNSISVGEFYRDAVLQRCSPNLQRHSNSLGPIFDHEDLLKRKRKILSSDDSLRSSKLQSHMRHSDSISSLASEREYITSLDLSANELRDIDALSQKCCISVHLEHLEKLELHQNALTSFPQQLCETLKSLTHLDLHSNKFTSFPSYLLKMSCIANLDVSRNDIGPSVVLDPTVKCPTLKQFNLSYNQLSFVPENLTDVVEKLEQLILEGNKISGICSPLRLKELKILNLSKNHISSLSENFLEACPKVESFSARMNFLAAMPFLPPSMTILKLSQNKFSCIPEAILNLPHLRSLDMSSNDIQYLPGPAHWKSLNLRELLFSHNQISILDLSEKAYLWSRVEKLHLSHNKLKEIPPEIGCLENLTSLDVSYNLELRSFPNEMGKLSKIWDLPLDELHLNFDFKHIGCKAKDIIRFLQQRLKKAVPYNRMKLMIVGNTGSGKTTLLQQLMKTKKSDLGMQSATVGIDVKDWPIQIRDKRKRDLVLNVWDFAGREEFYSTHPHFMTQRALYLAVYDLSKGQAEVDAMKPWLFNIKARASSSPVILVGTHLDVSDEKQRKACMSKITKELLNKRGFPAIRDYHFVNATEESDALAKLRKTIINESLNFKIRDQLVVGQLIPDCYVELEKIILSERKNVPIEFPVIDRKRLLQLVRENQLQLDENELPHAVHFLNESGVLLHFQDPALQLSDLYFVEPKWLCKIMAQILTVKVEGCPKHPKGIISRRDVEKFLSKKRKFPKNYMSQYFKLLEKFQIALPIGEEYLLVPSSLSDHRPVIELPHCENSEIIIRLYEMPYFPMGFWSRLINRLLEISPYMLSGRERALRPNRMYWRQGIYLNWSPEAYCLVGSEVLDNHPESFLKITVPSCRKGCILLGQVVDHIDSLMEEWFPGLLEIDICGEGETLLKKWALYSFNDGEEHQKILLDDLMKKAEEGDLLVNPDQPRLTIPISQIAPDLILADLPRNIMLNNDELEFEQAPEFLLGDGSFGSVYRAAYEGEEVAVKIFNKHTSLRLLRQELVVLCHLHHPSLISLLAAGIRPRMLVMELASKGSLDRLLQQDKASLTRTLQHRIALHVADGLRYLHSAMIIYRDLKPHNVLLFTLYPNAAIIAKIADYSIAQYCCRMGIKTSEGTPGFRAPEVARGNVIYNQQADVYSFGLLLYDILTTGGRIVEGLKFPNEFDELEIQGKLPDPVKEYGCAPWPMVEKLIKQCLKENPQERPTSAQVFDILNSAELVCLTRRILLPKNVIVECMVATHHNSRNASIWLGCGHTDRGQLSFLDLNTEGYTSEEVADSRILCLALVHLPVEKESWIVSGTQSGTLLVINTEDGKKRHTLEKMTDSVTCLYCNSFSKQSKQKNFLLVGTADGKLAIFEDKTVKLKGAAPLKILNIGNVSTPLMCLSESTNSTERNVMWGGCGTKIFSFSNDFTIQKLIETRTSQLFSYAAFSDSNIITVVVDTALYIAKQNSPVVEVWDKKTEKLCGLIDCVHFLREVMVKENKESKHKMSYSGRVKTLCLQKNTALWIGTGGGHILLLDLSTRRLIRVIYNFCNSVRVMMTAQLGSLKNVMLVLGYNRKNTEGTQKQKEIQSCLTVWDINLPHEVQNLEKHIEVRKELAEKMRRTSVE

Compared with `CC1(N2CCC(c3cc4cc(NC(=O)C56CC(C5)C6)ncc4cc3Cl)CC2)COC1` [Ex-7.7, N-(7-chloro-6-(1-(3-methyloxetan-3-yl)piperidin-4-yl)isoquinolin-3-yl)bicyclo[1.1.1]pentane-1-carboxamide], `CC1CC(C(=O)Nc2cc3cc(C4CCN(C5(C)COC5)CC4)c(Cl)cc3cn2)C1` (racemic) [Ex-1.16, Rac-N-(7-chloro-6-(1-(3-methyloxetan-3-yl)piperidin-4-yl)isoquinolin-3-yl)-3-methylcyclobutane-1-carboxamide] is 1.7-fold lower in IC50: 9.12 nM for the first, 5.5 nM for the second.

First: CC1(N2CCC(c3cc4cc(NC(=O)C5CC5c5cc(F)ccn5)ncc4cc3Cl)CC2)COCC1O (single isomer, unassigned) [Ex-4.39, N-(7-chloro-6-(1-(4-hydroxy-3-methyltetrahydrofuran-3-yl)piperidin-4-yl)isoquinolin-3-yl)-2-(4-fluoropyridin-2-yl)cyclopropane-1-carboxamide]
Second: Cc1ccc(C2CC2C(=O)Nc2cc3cc(C4CCN(C5(C)COCC5O)CC4)c(Cl)cc3cn2)s1 (single isomer, unassigned) [Ex-4.57, N-(7-chloro-6-(1-(4-hydroxy-3-methyltetrahydrofuran-3-yl)piperidin-4-yl)isoquinolin-3-yl)-2-(5-methylthiophen-2-yl)cyclopropane-1-carboxamide]
The IC50 of the first is 3.2-fold higher: 135 nM for the first, 41.7 nM for the second.

Going from `CC1(C)CC(C(=O)Nc2cc3cc(C4CCN(C5(C)CCOC5)CC4)c(Cl)cc3cn2)CCO1` (single isomer, unassigned) [Ex-6.47, N-(7-chloro-6-(1-(3-methyltetrahydrofuran-3-yl)piperidin-4-yl)isoquinolin-3-yl)-2,2-dimethyltetrahydro-2H-pyran-4-carboxamide] to `CC(C)(O)C1CC1C(=O)Nc1cc2cc(C3CCN(C4(C)CCOC4)CC3)c(Cl)cc2cn1` (stereo not drawn) [Ex-2.24], the IC50 falls from 0.724 nM to 0.257 nM (2.8-fold).

Going from `CCC1C(C(=O)Nc2cc3cc(C4CCN(C5(C)COCC5O)CC4)c(Cl)cc3cn2)C1c1ccccn1` (single isomer, unassigned) [Ex-4.55, N-(7-chloro-6-(1-(4-hydroxy-3-methyltetrahydrofuran-3-yl)piperidin-4-yl)isoquinolin-3-yl)-2-ethyl-3-(pyridin-2-yl)cyclopropane-1-carboxamide] to `CC1(N2CCC(c3cc4cc(NC(=O)C5CC(c6ccccn6)C5)ncc4cc3Cl)CC2)COCC1O` (single isomer, unassigned) [Ex-4.75, N-(7-chloro-6-(1-(4-hydroxy-3-methyltetrahydrofuran-3-yl)piperidin-4-yl)isoquinolin-3-yl)-3-(pyridin-2-yl)cyclobutane-1-carboxamide], the IC50 rises from 30.9 nM to 100 nM (3.2-fold).

Going from `CC(=O)Nc1cc2cc(C3CCN(C4COC4)CC3)c(Cl)cc2cn1` [Ex-7.1, N-(7-chloro-6-(1-(oxetan-3-yl)piperidin-4-yl)isoquinolin-3-yl)acetamide] to `O=C(Nc1cc2cc(C3CCN(C4COC4)CC3)c(Cl)cc2cn1)C1CC1` [Ex-7.6, N-(7-chloro-6-(1-(oxetan-3-yl)piperidin-4-yl)isoquinolin-3-yl)cyclopropanecarboxamide], the IC50 falls from 11.5 nM to 2.14 nM (5.4-fold).

`CC1(N2CCC(c3cc4cc(NC(=O)C5CC5C(F)F)ncc4cc3Cl)CC2)COCC1O` (single isomer, unassigned) [Ex-4.44, N-(7-chloro-6-(1-(4-hydroxy-3-methyltetrahydrofuran-3-yl)piperidin-4-yl)isoquinolin-3-yl)-2-(difluoromethyl)cyclopropane-1-carboxamide] and `Cc1cc2cnc(NC(=O)C3CC3C(F)F)cc2cc1C1CCN(C2(C)COCC2O)CC1` (stereo not drawn) [Ex-2.53] are within 1.5-fold of each other in IC50: 0.562 nM for the first, 0.813 nM for the second.

Compared with `CC1(C)CC(C(=O)Nc2cc3cc(C4CCC(N5CCC(F)C5)CC4)c(Cl)cc3cn2)CCO1` (single isomer, unassigned) [Ex-5.15, N-(7-chloro-6-(4-(3-fluoropyrrolidin-1-yl)cyclohexyl)isoquinolin-3-yl)-2,2-dimethyltetrahydro-2H-pyran-4-carboxamid], `CC1(N2CCC(c3cc4cc(NC(=O)C5CC56CC6)ncc4cc3Cl)CC2)COCC1F` (stereo not drawn) [Ex-2.96] is 16-fold lower in IC50: 1.29 nM for the first, 0.0813 nM for the second.

Going from `Cc1cc2cnc(NC(=O)C3CC34CC4)cc2cc1C1CCN(C2(C)COCC2O)CC1` (single isomer, unassigned) [Ex-16.13, N-(6-(1-(4-hydroxy-3-methyltetrahydrofuran-3-yl)piperidin-4-yl)-7-methylisoquinolin-3-yl)spiro[2.2]pentane-1-carboxamide] to `CC1(N2CCC(c3cc4cc(NC(=O)C5COC6(CCC6)C5)ncc4cc3Cl)CC2)COCC1O` (single isomer, unassigned) [Ex-4.18, N-(7-chloro-6-(1-(4-hydroxy-3-methyltetrahydrofuran-3-yl)piperidin-4-yl)isoquinolin-3-yl)-5-oxaspiro[3.4]octane-7-carboxamide], the IC50 rises from 0.0813 nM to 0.166 nM (2-fold).

First: CC1(N2CCC(c3cc4cc(NC(=O)C5CC5c5cncnc5)ncc4cc3Cl)CC2)COCC1O (single isomer, unassigned) [Ex-4.35, N-(7-chloro-6-(1-(4-hydroxy-3-methyltetrahydrofuran-3-yl)piperidin-4-yl)isoquinolin-3-yl)-2-(pyrimidin-5-yl)cyclopropane-1-carboxamide]
Second: CC1(N2CCC(c3cc4cc(NC(=O)C5CC5C5CCCO5)ncc4cc3Cl)CC2)COCC1O (single isomer, unassigned) [Ex-4.69, N-(7-chloro-6-(1-(4-hydroxy-3-methyltetrahydrofuran-3-yl)piperidin-4-yl)isoquinolin-3-yl)-2-(tetrahydrofuran-2-yl)cyclopropane-1-carboxamide]
The IC50 of the first is 8.5-fold higher: 0.692 nM for the first, 0.0813 nM for the second.

`N#CC1(c2ccc3cnc(NC(=O)C4CC4)cc3c2)CCC1` [Ex-17.2] and `CCC(=O)N1CC(C(=O)Nc2cc3cc(C4(C#N)CC45CC5)ccc3cn2)C1` (single isomer, unassigned) [Ex-19.1, (R or S)-N-(6-(1-cyanospiro[2.2]pentan-1-yl)isoquinolin-3-yl)-1-propionylazetidine-3-carboxamide] are within 1.5-fold of each other in IC50: 14.5 nM for the first, 10.7 nM for the second.

Compared with `N#CC1(c2ccc3cnc(NC(=O)C4CC4c4ccccn4)cc3c2)CC12CC2` (stereo not drawn) [Ex-2.40], `N#CC1(c2ccc3cnc(NC(=O)C4C5Oc6cc(Cl)ncc6C54)cc3c2)CC12CC2` (single isomer, unassigned) [Ex-1.33, (1S,1aR,6bS or 1R,1aS,6bR)-4-chloro-N-(6-((R or S)-1-cyanospiro[2.2]pentan-1-yl)isoquinolin-3-yl)-1a,6b-dihydro-1H-cyclopropa[4,5]furo[3,2-c]pyridine-1-carboxamide] is 49-fold higher in IC50: 0.575 nM for the first, 28.2 nM for the second.

Going from `CC(C)(O)c1cccc(CC(=O)Nc2cc3cc(C4(C#N)CC45CC5)ccc3cn2)c1` (single isomer, unassigned) [Ex-1.45, (R or S)-N-(6-(1-cyanospiro[2.2]pentan-1-yl)isoquinolin-3-yl)-2-(3-(2-hydroxypropan-2-yl)phenyl)acetamide] to `N#CC1(c2ccc3cnc(NC(=O)C4CC4c4ccccn4)cc3c2)CC12CC2` (stereo not drawn) [Ex-2.39], the IC50 falls from 12.9 nM to 2.29 nM (5.6-fold).

Going from `CC(C)(O)C1CC1C(=O)Nc1cc2cc(C3CCN(C4(C)COCC4F)CC3)c(Cl)cc2cn1` (single isomer, unassigned) [Ex-6.29, N-(7-chloro-6-(1-(4-fluoro-3-methyltetrahydrofuran-3-yl)piperidin-4-yl)isoquinolin-3-yl)-2-(2-hydroxypropan-2-yl)cyclopropane-1-carboxamide] to `Cn1cc(C(C)(C)C(=O)Nc2cc3cc(C4CCN(C5(C)COCC5F)CC4)c(Cl)cc3cn2)cn1` (single isomer, unassigned) [Ex-6.55, N-(7-chloro-6-(1-(4-fluoro-3-methyltetrahydrofuran-3-yl)piperidin-4-yl)isoquinolin-3-yl)-2-methyl-2-(1-methyl-1H-pyrazol-4-yl)propenamide], the IC50 rises from 24.5 nM to 447 nM (18-fold).

Going from `O=C(Nc1cc2cc(C3CCN(C4COCC4O)CC3)c(Cl)cc2cn1)C1CC12CCOCC2` (single isomer, unassigned) [Ex-4.1, (R or S)-N-(7-chloro-6-(1-((3R,4R or 3R, 4R)-4-hydroxytetrahydrofuran-3-yl)piperidin-4-yl)isoquinolin-3-yl)-6-oxaspiro[2.5]octane-1-carboxamide] to `CC1(N2CCC(c3cc4cc(NC(=O)C5CC56CCOCC6)ncc4cc3Cl)CC2)COC(C2CC2)C1` (single isomer, unassigned) [Ex-6.17, N-(7-chloro-6-(1-(5-cyclopropyl-3-methyltetrahydrofuran-3-yl)piperidin-4-yl)isoquinolin-3-yl)-6-oxaspiro[2.5]octane-1-carboxamide], the IC50 rises from 0.631 nM to 3.55 nM (5.6-fold).

Compared with `O=C(Nc1cc2cc(C3CCC(N4CC(F)(F)C4)CC3)c(Cl)cc2cn1)C1CC1c1ccccn1` (single isomer, unassigned) [Ex-5.4, N-(7-chloro-6-(4-(3,3-difluoroazetidin-1-yl)cyclohexyl)isoquinolin-3-yl)-2-(pyridin-2-yl)cyclopropane-1-carboxamide], `CC(CC#N)c1cc2cc(NC(=O)C3CC3c3ccccn3)ncc2cc1Cl` (single isomer, unassigned) [Ex-9.22, N-(7-chloro-6-(1-cyanopropan-2-yl)isoquinolin-3-yl)-2-(pyridin-2-yl)cyclopropane-1-carboxamide] is 2.7-fold higher in IC50: 47.9 nM for the first, 129 nM for the second.

First: CN(C)C1CCC2C(C(=O)Nc3cc4cc(C5CCN(C6(C)COCC6O)CC5)c(Cl)cc4cn3)C21 (single isomer, unassigned) [Ex-4.28, N-(7-chloro-6-(1-(4-hydroxy-3-methyltetrahydrofuran-3-yl)piperidin-4-yl)isoquinolin-3-yl)-2-(dimethylamino)bicyclo[3.1.0]hexane-6-carboxamide]
Second: CC1C(C(=O)Nc2cc3cc(C4CCN(C5(C)COCC5O)CC4)c(Cl)cc3cn2)C12CCOCC2 (single isomer, unassigned) [Ex-10.5, N-(7-chloro-6-(1-(4-hydroxy-3-methyltetrahydrofuran-3-yl)piperidin-4-yl)isoquinolin-3-yl)-2-methyl-6-oxaspiro[2.5]octane-1-carboxamide]
The IC50 of the first is 760-fold lower: 0.0813 nM for the first, 61.7 nM for the second.

`CC(CC#N)c1cc2cc(NC(=O)C3CC3c3ccccn3)ncc2cc1Cl` (single isomer, unassigned) [Ex-9.21, N-(7-chloro-6-(1-cyanopropan-2-yl)isoquinolin-3-yl)-2-(pyridin-2-yl)cyclopropane-1-carboxamide] showed an IC50 of 26.3 nM.
